Holding throughout (format): cell-based, menschlich
Assay [1] relates to MDA-MB-231-Brustkrebszellen. Briefly: Growth inhibition of MDA-MB-231 breast cancer cells in vitro (cytostatic effect). The conditions noted are these: MDA-MB-231 cells, read-out: IC50 Hemmwirkung auf das Wachstum. The source says:
(§1) Die cytostatische Wirkung der erfindungsgemäßen Verbindungen wurde an zwei verschiedenen menschlichen Mammacarcinomzellinien in vitro bestimmt (M. Goldbrunner et al., J.Med.Chem. 1997,40,3525). Es handelt sich dabei um die hormonunabhängige MDA-MB-231-Zellinie und die estrogensensitive MCF-7-Linie. Die MDA-MB-231-Zellen wurden auch für die durchflusszytometrischen Analysen zur Zellzyklusverteilung herangezogen (M.J.J. Jaroszeski und R. Heller, Flow Cytometry Protocols, Humana Press, 1998, Totowa New Jersey). Besonders überraschend war, dass diese synthetischen Verbindungen häufig bereits im Konzentrationsbereich von 10 bis 100 nanomolar das Wachstum von menschlichen Tumorzellen stark hemmen, obwohl sie nur ein relativ niedriges Molekulargewicht aufweisen (MG ~ 320 - 500) (Tabelle 2 und 3, Abb. 2). Potente Therapeutika, die ebenfalls in den Zellzyklus eingreifen, besitzen Molekulargewichte im Bereich von 825 (Vincristin als Base) und 850 (Paclitaxel).

Assay [2] concerns MCF-7-Mammacarcinomzellen. Description: Growth inhibition of MCF-7 mammary carcinoma cells in vitro (cytostatic effect). As to conditions: MCF-7 cells, read-out: IC50 Hemmwirkung auf das Wachstum.
Excerpt: as §1

For assay [3], the system named is MDA-MB-231-Mammacarcinomzellen. Briefly: Flow-cytometric analysis of cell cycle distribution.
Excerpt: as §1

Results on seven molecules are retold here after patent publication EP1746087A1, “Derivates of 3-indolylmethylene having cytostatic properties” (Universitaet Regensburg, priority 2005, dated 2007).

pIC50: −log10 of the molar value. Where two headings read alike, the source gives them in different places.

Broadly, the pIC50 is −log10 of the IC50, conventionally taken in molar units.

For `CCCCc1ccc2[nH]c(-c3ccc(OC)cc3)c(C=NO)c2c1` [Verbindung 20, 5-n-Butyl-2-(4-methoxyphenyl)-indol-3-carbaldehyd-oxim], the negative-log IC50 (pIC50) in assay [1] (Homo sapiens) is 7.40; in assay [2] (Homo sapiens, MCF7), 6.68. Moreover, the Debris % in assay [3] (Konz. 0.05 µM) was 7.3%; in assay [3] (Konz. 0.1 µM) it was 12.2%; in assay [3] (Konz. 0.5 µM) it was 9.6%; in assay [3] (Konz. 1.0 µM), 13.8%. In addition, the G1/G0 % in assay [3] (Konz. 0.05 µM) was 50.0%; in assay [3] (Konz. 0.1 µM), 38.6%; in assay [3] (Konz. 0.5 µM) it was 9.0%; in assay [3] (Konz. 1.0 µM) it was 9.6%. Besides, the G2/M % in assay [3] (Konz. 0.05 µM) was determined as 30.0%; in assay [3] (Konz. 0.1 µM) it was 34.9%; in assay [3] (Konz. 0.5 µM), 64.6%; in assay [3] (Konz. 1.0 µM), 54.8%. Moreover, the S % in assay [3] (Konz. 0.05 µM) came to 13.2%; in assay [3] (Konz. 0.1 µM), 14.4%; in assay [3] (Konz. 0.5 µM) it was 14.4%; in assay [3] (Konz. 1.0 µM), 21.2%.

For the molecule `CCCCc1ccc2[nH]c(-c3ccc(C(F)(F)F)cc3)c(C=NNC(=O)c3cccnc3)c2c1` [Verbindung 25, 5-Butyl-2-[4-(trifluormethyl)-phenyl]-indol-3-carbaldehyd-nicotinylhydrazone], the negative logarithm of the IC50 (pIC50) in assay [1] was 7.01; in assay [2], 6.59. In addition, the Debris % is 2.3% in assay [3] (Konz. 0.01 µM), 2.7% in assay [3] (Konz. 0.05 µM), 2.6% in assay [3] (Konz. 0.1 µM) and 6.9% in assay [3] (Konz. 0.5 µM). Also, the G1/G0 % is 50.8% in assay [3] (Konz. 0.01 µM), 51.2% in assay [3] (Konz. 0.05 µM), 48.8% in assay [3] (Konz. 0.1 µM) and 11.4% in assay [3] (Konz. 0.5 µM). Moreover, the G2/M % in assay [3] (Konz. 0.01 µM) was determined as 26.3%; in assay [3] (Konz. 0.05 µM), 24.1%; in assay [3] (Konz. 0.1 µM), 24.9%; in assay [3] (Konz. 0.5 µM), 75.2%. For the same molecule, the S % in assay [3] (Konz. 0.01 µM) worked out at 21.7%; in assay [3] (Konz. 0.05 µM), 23.1%; in assay [3] (Konz. 0.1 µM) it was 24.4%; in assay [3] (Konz. 0.5 µM), 11.0%.

With `COc1ccc(-c2[nH]c3ccc(C)cc3c2C=C(C#N)C#N)cc1` [Verbindung 1, [2-(4-Methoxyphenyl)-5-methyl-indol-3-yl]-methylenpropandinitril], the pIC50 in assay [1] (Homo sapiens) was 6.55. Besides, the pIC50 in assay [2] (Homo sapiens, MCF7) was 6.70. In assay [3] (Konz. 0.5 µM), this molecule registered a Debris % of 7.8%, a G1/G0 % of 41.0%, a G2/M % of 32.0% and a S % of 19.2%. In assay [3] (Konz. 1.0 µM), this molecule gave a Debris % of 16.4%, a G1/G0 % of 16.9%, a G2/M % of 45.4% and a S % of 21.3%. In assay [3] (Konz. 5.0 µM), the Debris % came to 6.4%, the G1/G0 % is recorded as 9.8%, the G2/M % was found to be 57.7% and the S % is recorded as 26.1%.

Regarding `CCCCc1ccc2[nH]c(-c3ccc(C(F)(F)F)cc3)c(C=NC)c2c1` [Verbindung 19, 5-n-Butyl-2-[4-(trifluormethyl)-phenyl]-indol-3-carbaldehyd-methylimin], the pIC50 was 7.49 in assay [1] and 6.85 in assay [2]. Moreover, the Debris % in assay [3] (Konz. 0.01 µM) turned out to be 4.4%; in assay [3] (Konz. 0.05 µM), 14.6%; in assay [3] (Konz. 0.1 µM), 27.1%; in assay [3] (Konz. 0.5 µM) it was 20.5%. For the same molecule, the G1/G0 % was determined as 43.8% in assay [3] (Konz. 0.01 µM), 38.9% in assay [3] (Konz. 0.05 µM), 5.5% in assay [3] (Konz. 0.1 µM) and 6.3% in assay [3] (Konz. 0.5 µM). Besides, the G2/M % in assay [3] (Konz. 0.01 µM) is recorded as 36.6%; in assay [3] (Konz. 0.05 µM), 30.8%; in assay [3] (Konz. 0.1 µM), 59.3%; in assay [3] (Konz. 0.5 µM), 59.8%. Further, the S % in assay [3] (Konz. 0.01 µM) is on record as 14.0%; in assay [3] (Konz. 0.05 µM), 15.3%; in assay [3] (Konz. 0.1 µM) it was 7.2%; in assay [3] (Konz. 0.5 µM), 11.1%.

With `CCCCCCc1ccc2[nH]c(-c3ccc(OC)cc3)c(C=C(C#N)C#N)c2c1` [Verbindung 9, [5-n-Hexyl-2-(4-methoxyphenyl)-indol-3-yl]-methylenpropandinitril], the pIC50 in assay [1] (Homo sapiens) is 7.34. For the same molecule, the negative logarithm of the IC50 (pIC50) in assay [2] (Homo sapiens, MCF7) was 7.60. In assay [3] (Konz. 0.1 µM), the Debris % is reported as 6.1%, the G1/G0 % amounted to 46.2%, the G2/M % worked out at 22.4% and the S % is 25.3%. Besides, in assay [3] (Konz. 0.5 µM), the Debris % stood at 22.6%, the G1/G0 % is 7.4%, the G2/M % worked out at 53.9% and the S % is reported as 16.1%. In assay [3] (Konz. 1.0 µM), this molecule displayed a Debris % of 15.9%, a G1/G0 % of 7.1%, a G2/M % of 57.3% and a S % of 19.7%.

Take `CCCCCc1ccc2[nH]c(-c3ccc(OC)cc3)c(C=C(C#N)C#N)c2c1` [Verbindung 8, [2-(4-Methoxyphenyl)-5-n-pentyl-indol-3-yl]-methylenpropandinitril]: the negative-log IC50 (pIC50) in assay [1] (Homo sapiens) was 7.38; in assay [2] (Homo sapiens, MCF7), 7.12.

`CCCCc1ccc2[nH]c(-c3ccc(OC)cc3)c(C=NNC(=O)c3ccccc3)c2c1` [Verbindung 22, 5-n-Butyl-2-(4-methoxyphenyl)-indol-3-carbaldehyd-benzoylhydrazon]: the pIC50 in assay [1] (Homo sapiens) was 7.49; in assay [2] (Homo sapiens, MCF7) it was 6.89.
